In brackets after ≈: the same amount, converted by molar mass. Activity calls are given as the source filed them. The calls are words filed in the database; no cut-off is given here.
Legend:
Cryptococcus neoformans [1] = assay: Antifungal activity against Cryptococcus neoformans H99 assessed as reduction in fungal growth; format: functional
[Candida] auris [2] = Antifungal activity against Candida auris 0029 assessed as reduction in fungal growth; format: functional; settings: Candidozyma auris
[Candida] auris [3] = Antifungal activity against Candida auris ATCC 15448 assessed as reduction in fungal growth; format: functional; settings: Candidozyma auris
[4] = Solubility of compound in MeOH/H2O at pH 7 by HPLC analysis; format: physicochemical
Candida albicans = assay: Synergistic antifungal activity against Candida albicans assessed as inhibition of fungal growth incubated in presence of fluconazole; format: functional, organism-based
[Candida] auris [5] = Synergistic antifungal activity against Candida auris 0029 assessed as inhibition of fungal growth incubated in presence of fluconazole; format: functional, organism-based; settings: Candidozyma auris
[6] = Cytotoxicity against HUVEC cells; format: toxicity, cell-based; settings: human
[7] = Hemolytic activity in rabbit erythrocytes assessed as hemolysis at 10 to 100 uM relative to control; format: toxicity, cell-based, Oryctolagus cuniculus, Erythrocyte; settings: dose 10-100 µM, read-out: Activity
Cryptococcus neoformans [8] = assay: Antifungal activity against Cryptococcus neoformans H99 assessed as inhibition of cell growth at 4 microg/ml measured for 72 hrs; format: functional, organism-based; settings: dose 4.0 µg/ml
[Candida] auris [9] = Antifungal activity against Candida auris 0029 assessed as inhibition of cell growth at 16 microg/ml measured for 72 hrs; format: functional; settings: Candidozyma auris
Cryptococcus neoformans [10] = assay: Fungicidal activity against Cryptococcus neoformans H99; format: functional
[Candida] auris [11] = Fungicidal activity against Candida auris 0029; format: functional; settings: Candidozyma auris
Cryptococcus neoformans [12] = assay: Antibiofilm activity against Cryptococcus neoformans H99 assessed as inhibition of biofilm formation upto […] microg/ml incubated for 24 hrs by XTT reduction assay; format: functional, organism-based; settings: dose <= 64.0 µg/ml
[Candida] auris [13] = Antibiofilm activity against Candida auris 0029 assessed as inhibition of biofilm formation upto […] microg/ml incubated for 24 hrs by XTT reduction assay; format: functional, organism-based; settings: Candidozyma auris, dose <= 64.0 µg/ml
Cryptococcus neoformans [14] = assay: Antibiofilm activity against Cryptococcus neoformans H99 assessed as inhibition of biofilm formation at 1 microg/ml incubated for 24 hrs by XTT reduction assay; format: functional, organism-based; settings: dose 1.0 µg/ml
[Candida] auris [15] = Antibiofilm activity against Candida auris 0029 assessed as inhibition of biofilm formation at 4 to 64 microg/ml incubated for 24 hrs by XTT reduction assay; format: functional, organism-based; settings: Candidozyma auris, dose 4-64 µg/ml
Cryptococcus neoformans [16] = assay: Antibiofilm activity against Cryptococcus neoformans H99 assessed as inhibition of capsule formation at 1 microg/ml incubated for 48 hrs by laser confocal microscopic analysis; format: functional, organism-based; settings: dose 1.0 µg/ml
[Candida] auris [17] = Antibiofilm activity against Candida auris 0029 assessed as appearance of surface collapse at 4 to 16 microg/ml measured for 48 hrs by SEM analysis; format: functional, organism-based; settings: Candidozyma auris, dose 4-16 µg/ml
Cryptococcus neoformans [18] = assay: Antibiofilm activity against Cryptococcus neoformans H99 assessed as appearance of surface collapse at 4 to 16 microg/ml measured for 48 hrs by SEM analysis; format: functional, organism-based; settings: dose 4-16 µg/ml
Cryptococcus neoformans [19] = assay: Antibiofilm activity against Cryptococcus neoformans H99 assessed as appearance of blurred capsule at 4 microg/ml measured for 48 hrs by SEM analysis; format: functional, organism-based; settings: dose 4.0 µg/ml
Cryptococcus neoformans [20] = assay: Induction of morphological changes in Cryptococcus neoformans H99 assessed as damaged cell membrane at 1 to 4 microg/ml by TEM analysis; format: functional, organism-based; settings: dose 1-4 µg/ml
Cryptococcus neoformans [21] = assay: Induction of morphological changes in Cryptococcus neoformans H99 assessed as sparse capsule at 1 to 4 microg/ml by TEM analysis; format: functional, organism-based; settings: dose 1-4 µg/ml
[Candida] auris [22] = Induction of morphological changes in Candida auris 0029 assessed as cell wall damage by TEM analysis; format: functional, organism-based; settings: Candidozyma auris
[Candida] auris [23] = Induction of morphological changes in Candida auris 0029 assessed as cell membrane damage by TEM analysis; format: functional, organism-based; settings: Candidozyma auris
[24] = Inhibition of Cryptococcus neoformans H99 JMJD3 by absorbance based analysis
[25] = Inhibition of Candida auris 0029 JMJD3 by absorbance based analysis; design: species or system Candidozyma auris
Cryptococcus neoformans [26] = assay: Antifungal activity against Cryptococcus neoformans H99 infected in ICR mouse assessed as reduction in fungal burden in brain at 2 to 5 mg/kg, ip administered for 5 days; format: functional, organism-based; settings: dose 2-5 mg/kg, time 5.0 day
[27] = Metabolic stability in mouse liver microsome assessed as half life; format: ADME; settings: liver microsomes
[28] = Metabolic stability in mouse liver microsome assessed as clearance; format: ADME; settings: liver microsomes, read-out: CLH
Cryptococcus neoformans [29] = assay: Antifungal activity against Cryptococcus neoformans H99 assessed as reduction in fungal growth incubated for 72 hrs in presence of 1 uM Fe2+; format: functional
Cryptococcus neoformans [30] = assay: Antifungal activity against Cryptococcus neoformans H99 assessed as reduction in fungal growth incubated for 72 hrs in presence of 5 uM Fe2+; format: functional
Cryptococcus neoformans [31] = assay: Antifungal activity against Cryptococcus neoformans H99 assessed as reduction in fungal growth incubated for 72 hrs in presence of 10 uM Fe2+; format: functional
Cryptococcus neoformans [32] = assay: Antifungal activity against Cryptococcus neoformans H99 assessed as reduction in fungal growth incubated for 72 hrs in presence of 20 uM Fe2+; format: functional
Cryptococcus neoformans [33] = assay: Antifungal activity against Cryptococcus neoformans H99 assessed as reduction in fungal growth incubated for 72 hrs in presence of 40 uM Fe2+; format: functional
Cryptococcus neoformans [34] = assay: Antifungal activity against Cryptococcus neoformans H99 assessed as reduction in fungal growth incubated for 72 hrs in presence of 80 uM Fe2+; format: functional
[Candida] auris [35] = Effect on sterol composition in Candida auris 0029 assessed as other sterols content at 1 microg/ml measured after 24 hrs by GC-MS analysis; format: functional, Candidozyma auris; settings: dose 1 µg/ml
[Candida] auris [36] = Effect on sterol composition in Candida auris 0029 assessed as ergosterol content at 1 microg/ml measured after 24 hrs by GC-MS analysis (reference value: 100 %); format: functional, Candidozyma auris; settings: dose 1 µg/ml
Cryptococcus neoformans [37] = assay: Effect on sterol composition in Cryptococcus neoformans H99 assessed as ergosterol content at 1 microg/ml measured after 24 hrs by GC-MS analysis (reference value: 58.53%); format: functional; settings: dose 1 µg/ml
Cryptococcus neoformans [38] = assay: Effect on sterol composition in Cryptococcus neoformans H99 assessed as other sterols content at 1 microg/ml measured after 24 hrs by GC-MS analysis (reference value: 41.47%); format: functional; settings: dose 1 µg/ml
[Candida] auris [39] = Antifungal activity against Candida auris 0029 infected in ICR mouse assessed as reduction in fungal burden in kidney at 2 to 5 mg/kg, ip administered for 5 days; format: functional, organism-based; settings: Candidozyma auris, dose 2-5 mg/kg, time 5.0 day

O=c1n(-c2ccccn2)c2ccccc2n1-c1ccc(Cl)cn1
MIC80 (Cryptococcus neoformans [1]): 64 µg/mL (≈ 198 µM) | MIC80 ([Candida] auris [2]): > 64 µg/mL | MIC80 ([Candida] auris [3]): > 64 µg/mL

FC(F)(F)c1ccc(NN=C(c2ccccn2)c2ccccn2)cc1
MIC80 (Cryptococcus neoformans [1]): 16 µg/mL (≈ 46.7 µM) | MIC80 ([Candida] auris [2]): > 64 µg/mL | MIC80 ([Candida] auris [3]): > 64 µg/mL

N#Cc1ccc(NN=C(c2ccccn2)c2ccccn2)nc1
solubility [4]: 3.93 µg/mL (≈ 13.1 µM) | MIC80 (Cryptococcus neoformans [1]): 0.5 µg/mL (≈ 1.66 µM) | MIC80 ([Candida] auris [2]): 2 µg/mL (≈ 6.66 µM) | MIC80 ([Candida] auris [3]): 0.125 µg/mL (≈ 0.416 µM)

Clc1ccc(N/N=C(\c2ccc(Cl)cc2)c2ccccn2)cc1
MIC80 (Cryptococcus neoformans [1]): 32 µg/mL (≈ 93.5 µM) | MIC80 ([Candida] auris [2]): > 64 µg/mL | MIC80 ([Candida] auris [3]): > 64 µg/mL

Cc1ccnc(-n2c(=O)n(-c3ccccn3)c3ccccc32)c1
MIC80 (Cryptococcus neoformans [1]): 64 µg/mL (≈ 212 µM) | MIC80 ([Candida] auris [2]): > 64 µg/mL | MIC80 ([Candida] auris [3]): > 64 µg/mL

COc1ccc(NN=C(c2ccccn2)c2ccccn2)nc1
Activity (Candida albicans): inactive | Activity ([Candida] auris [5]): inactive | solubility [4]: 79.2 µg/mL (≈ 259 µM) | MIC80 (Cryptococcus neoformans [1]): 0.5 µg/mL (≈ 1.64 µM) | MIC80 ([Candida] auris [2]): 2 µg/mL (≈ 6.55 µM) | MIC80 ([Candida] auris [3]): 0.125 µg/mL (≈ 0.409 µM) | IC50 [6]: 246 nM | hemolysis at 100 µM [7]: < 3% | Activity (Cryptococcus neoformans [8]): Active | inhibition at 16 µg/mL ([Candida] auris [9]): 100% | MFC (Cryptococcus neoformans [10]): 8 µg/mL (≈ 26.2 µM) | MFC ([Candida] auris [11]): 64 µg/mL (≈ 210 µM) | Activity (Cryptococcus neoformans [12]): Active | Activity ([Candida] auris [13]): Active | Activity (Cryptococcus neoformans [14]): Active | Activity ([Candida] auris [15]): Active | Activity (Cryptococcus neoformans [16]): Active | Activity ([Candida] auris [17]): Active | Activity (Cryptococcus neoformans [18]): Active | Activity (Cryptococcus neoformans [19]): Active | Activity (Cryptococcus neoformans [20]): Active | Activity (Cryptococcus neoformans [21]): Active | Activity ([Candida] auris [22]): Active | Activity ([Candida] auris [23]): Active | IC50 [24]: 134 nM | IC50 [25]: 12 nM | Activity (Cryptococcus neoformans [26]): Active | half-life [27]: 50.6 min | CLint scaled [28]: 108 mL/min/kg | MIC (Cryptococcus neoformans [29]): 2 µg/mL | MIC (Cryptococcus neoformans [30]): 4 µg/mL | MIC (Cryptococcus neoformans [31]): 8 µg/mL | MIC (Cryptococcus neoformans [32]): 16 µg/mL | MIC (Cryptococcus neoformans [33]): 16 µg/mL | MIC (Cryptococcus neoformans [34]): 32 µg/mL | Activity ([Candida] auris [35]): 43.07% | Activity ([Candida] auris [36]): 56.93% | Activity (Cryptococcus neoformans [37]): 43.82% | Activity (Cryptococcus neoformans [38]): 41.52% | Activity ([Candida] auris [39]): Active

COc1ccc(N/N=C(\c2ccccc2)c2ccccn2)nc1
MIC80 (Cryptococcus neoformans [1]): 0.5 µg/mL (≈ 1.64 µM) | MIC80 ([Candida] auris [2]): 2 µg/mL (≈ 6.57 µM) | MIC80 ([Candida] auris [3]): 0.125 µg/mL (≈ 0.411 µM)

Clc1ccc(N/N=C(\c2ccccc2)c2ccccn2)cc1
MIC80 (Cryptococcus neoformans [1]): 32 µg/mL (≈ 104 µM) | MIC80 ([Candida] auris [2]): > 64 µg/mL | MIC80 ([Candida] auris [3]): > 64 µg/mL

Fc1ccc(N/N=C(/c2ccccc2)c2ccccn2)cc1
MIC80 (Cryptococcus neoformans [1]): 32 µg/mL (≈ 110 µM) | MIC80 ([Candida] auris [2]): 64 µg/mL (≈ 220 µM) | MIC80 ([Candida] auris [3]): 32 µg/mL (≈ 110 µM)
